# Measured values published in patent US12577226B2, “Compounds for treating Huntington's disease” (PTC THERAPEUTICS, INC., priority 2019, dated 2026).
# Test system: Endogenous Huntingtin Protein (capture with MW1 (expanded polyglutamine) or MAB2166 antibody)
# Experiment: Endogenous Huntingtin Protein Assay (ELISA-based Meso Scale Discovery electrochemiluminescence assay)
# Type: cell-based
# Conditions: MSD electrochemiluminescence platform
# Procedure, shortened: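 MSD electrochemiluminescence sandwich immunoassay: plates coated with 1 μg/mL MW1 or MAB2166 capture antibody, samples incubated overnight at 4 °C. Detection with rabbit monoclonal #5656S then SULFO-TAG anti-rabbit (each 0.25 μg/mL, 1 h RT).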
row,Compound,IC50
1,"CC1(C)CC(Oc2ccc(-c3ncc(-c4ncco4)cc3O)nn2)CC2(CC2)N1 (centres unmarked) [Compound 28, 2-{6-[(5,5-dimethyl-4-azaspiro[2.5]octan-7-yl)oxy]pyridazin-3-yl}-5-(1,3-oxazol-2-yl)pyridin-3-ol]",≤ 0.1 µM
2,"2-(6-{[(3R,4S)-3-fluoro-2,2,6,6-tetramethylpiperidin-4-yl]oxy}pyridazin-3-yl)-5-(1H-pyrazol-4-yl)pyridin-3-ol and 2-(6-{[(3S,4R)-3-fluoro-2,2,6,6-tetramethylpiperidin-4-yl]oxy}pyridazin-3-yl)-5-(1H-pyrazol-4-yl)pyridin-3-ol [Compound 6]",≤ 0.1 µM
3,"COc1cc(-c2cnc(-c3ccc(N4CC[C@@H](NC(C)(C)C)C4)nn3)c(O)c2)ncn1 [Compound 30, 2-{6-[(3R)-3-(tert-butylamino)pyrrolidin-1-yl]pyridazin-3-yl}-5-(6-methoxypyrimidin-4-yl)pyridin-3-ol]",≤ 0.1 µM
4,"CC1(C)C[C@H](Oc2ccc(-c3ncc(-n4nccn4)cc3O)nn2)[C@H](F)C(C)(C)N1 (single isomer, unassigned) [Compound 11, 2-(6-{[(3R,4S)-3-fluoro-2,2,6,6-tetramethylpiperidin-4-yl]oxy}pyridazin-3-yl)-5-(2H-1,2,3-triazol-2-yl)pyridin-3-ol or 2-(6-{[(3S,4R)-3-fluoro-2,2,6,6-tetramethylpiperidin-4-yl]oxy}pyridazin-3-yl)-5-(2H-1,2,3-triazol-2-yl)pyridin-3-ol]",≤ 0.1 µM
5,"CC1CN(c2ccc(-c3ncc(Nc4cccnc4)cc3O)nn2)CCN1 (centres unmarked) [Compound 117, 2-[6-(3-methylpiperazin-1-yl)pyridazin-3-yl]-5-[(pyridin-3-yl)amino]pyridin-3-ol]",0.5 to 1 µM
6,"CN(c1ncc(-c2ncc(-n3nccn3)cc2O)nn1)C1CC(C)(C)NC(C)(C)C1 [Compound 144, 2-{3-[methyl(2,2,6,6-tetramethylpiperidin-4-yl)amino]-1,2,4-triazin-6-yl}-5-(2H-1,2,3-triazol-2-yl)pyridin-3-ol]",≤ 0.1 µM
7,"2-(6-{[(3R,4S)-3-fluoro-2,2,6,6-tetramethylpiperidin-4-yl]oxy}pyridazin-3-yl)-5-[2-methyl-8-(trifluoromethyl)imidazo[1,2-a]pyridin-6-yl]pyridin-3-ol and 2-(6-{[(3S,4R)-3-fluoro-2,2,6,6-tetramethylpiperidin-4-yl]oxy}pyridazin-3-yl)-5-[2-methyl-8-(trifluoromethyl)imidazo[1,2-a]pyridin-6-yl]pyridin-3-ol [Compound 46]",0.1 to 0.5 µM
8,"CC1(C)C[C@@H](Oc2ccc(-c3ncc(-c4nc5cnccn5n4)cc3O)nn2)[C@@H](F)C(C)(C)N1.CC1(C)C[C@H](Oc2ccc(-c3ncc(-c4nc5cnccn5n4)cc3O)nn2)[C@H](F)C(C)(C)N1 (mixture of isomers) [Compound 72, 2-(6-{[(3R,4S)-3-fluoro-2,2,6,6-tetramethylpiperidin-4-yl]oxy}pyridazin-3-yl)-5-([1,2,4]triazolo[1,5-a]pyrazin-2-yl)pyridin-3-ol and 2-(6-{[(3S,4R)-3-fluoro-2,2,6,6-tetramethylpiperidin-4-yl]oxy}pyridazin-3-yl)-5-([1,2,4]triazolo[1,5-a]pyrazin-2-yl)pyridin-3-ol]",0.1 to 0.5 µM
9,"Oc1cc(-n2nccn2)cnc1-c1ccc(N2CCN[C@@H](C3CC3)C2)nn1 [Compound 128, 2-{6-[(3S)-3-cyclopropylpiperazin-1-yl]pyridazin-3-yl}-5-(2H-1,2,3-triazol-2-yl)pyridin-3-ol]",≤ 0.1 µM
10,"COc1cc(-c2cnc(-c3ccc(OC4CC(C)(C)NC(C)(C)C4)nn3)c(O)c2)nn2cc(C)nc12 [Compound 81, 5-(8-methoxy-2-methylimidazo[1,2-b]pyridazin-6-yl)-2-{6-[(2,2,6,6-tetramethylpiperidin-4-yl)oxy]pyridazin-3-yl}pyridin-3-ol]",≤ 0.1 µM
11,"C[C@@H]1CN(c2ccc(-c3ncc(-c4cn[nH]c4)cc3O)nn2)C[C@H](C)N1 [Compound 86, 2-{6-[(3R,5S)-3,5-dimethylpiperazin-1-yl]pyridazin-3-yl}-5-(1H-pyrazol-4-yl)pyridin-3-ol and 2-{6-[(3S,5R)-3,5-dimethylpiperazin-1-yl]pyridazin-3-yl}-5-(1H-pyrazol-4-yl)pyridin-3-ol]",0.1 to 0.5 µM
12,"CC(C)(C)N[C@@H]1CCN(c2ccc(-c3ncc(-n4nccn4)cc3O)nn2)C1 [Compound 24, 2-{6-[(3R)-3-(tert-butylamino)pyrrolidin-1-yl]pyridazin-3-yl}-5-(2H-1,2,3-triazol-2-yl)pyridin-3-ol]",≤ 0.1 µM
13,"Cn1cc2cc(-c3cnc(-c4ccc(N5CCNCC5)nn4)c(O)c3)cc(F)c2n1 [Compound 93, 5-(7-fluoro-2-methyl-2H-indazol-5-yl)-2-[6-(piperazin-1-yl)pyridazin-3-yl]pyridin-3-ol]",≤ 0.1 µM
14,"CC1(C)CC(Oc2ccc(-c3ncc(-n4ccnc4)cc3O)nn2)CC(C)(C)N1 [Compound 5, 5-(1H-imidazol-1-yl)-2-{6-[(2,2,6,6-tetramethylpiperidin-4-yl)oxy]pyridazin-3-yl}pyridin-3-ol]",≤ 0.1 µM
15,"CC1(C)C[C@H](Oc2ccc(-c3ncc(-n4ccnc4)cc3O)nn2)[C@H](F)C(C)(C)N1 (single isomer, unassigned) [Compound 9, 2-(6-{[(3R,4S)-3-fluoro-2,2,6,6-tetramethylpiperidin-4-yl]oxy}pyridazin-3-yl)-5-(1H-imidazol-1-yl)pyridin-3-ol or 2-(6-{[(3S,4R)-3-fluoro-2,2,6,6-tetramethylpiperidin-4-yl]oxy}pyridazin-3-yl)-5-(1H-imidazol-1-yl)pyridin-3-ol]",0.1 to 0.5 µM
16,"[2H]C([2H])([2H])n1cc(-c2cnc(-c3ccc(O[C@H]4C[C@H](C)NC5(CC5)C4)nn3)c(O)c2)cn1 [Compound 84, 2-(6-{[(5S,7S)-5-methyl-4-azaspiro[2.5]octan-7-yl]oxy}pyridazin-3-yl)-5-[1-(^2H3)methyl-1H-pyrazol-4-yl]pyridin-3-ol]",0.5 to 1 µM
17,"Cc1cn2cc(-c3cnc(-c4ccc(N5CC6CC5CN6)nn4)c(O)c3)cnc2n1 (centres unmarked) [Compound 116, 2-[6-(2,5-diazabicyclo[2.2.1]heptan-2-yl)pyridazin-3-yl]-5-(2-methylimidazo[1,2-a]pyrimidin-6-yl)pyridin-3-ol]",0.5 to 1 µM
18,"CN(c1ccc(-c2ncc(-c3cn[nH]c3)cc2O)nn1)C1CC(C)(C)NC(C)(C)C1 [Compound 2, 2-{6-[methyl(2,2,6,6-tetramethylpiperidin-4-yl)amino]pyridazin-3-yl}-5-(1H-pyrazol-4-yl)pyridin-3-ol]",≤ 0.1 µM
19,"CCC1CN(c2ccc(-c3ncc(-c4cn[nH]c4)cc3O)nn2)CCN1 (centres unmarked) [Compound 119, 2-[6-(3-ethylpiperazin-1-yl)pyridazin-3-yl]-5-(1H-pyrazol-4-yl)pyridin-3-ol]",≤ 0.1 µM
20,"5-(8-ethyl-2-methylimidazo[1,2-a]pyridin-6-yl)-2-(6-{[(3R,4S)-3-fluoro-2,2,6,6-tetramethylpiperidin-4-yl]oxy}pyridazin-3-yl)pyridin-3-ol and 5-(8-ethyl-2-methylimidazo[1,2-a]pyridin-6-yl)-2-(6-{[(3S,4R)-3-fluoro-2,2,6,6-tetramethylpiperidin-4-yl]oxy}pyridazin-3-yl)pyridin-3-ol [Compound 45]",≤ 0.1 µM
